What was measured:
[1] = system: human colon adenocarcinoma cell line Caco-2 monolayer model; assay: in vitro
Procedure: (§1) The bi-directional transport of target compounds from apical side (AP) to basolateral side (BL) and from BL side to AP side is studied by using human colon adenocarcinoma cell line Caco-2 monolayer model. The transport parameters, apparent permeability coefficient (Papp) and efflux ratio are calculated by quantitative analysis with high performance liquid chromatography (HPLC).

in vitro = conditions: human; for efflux ratio: Caco-2; for Papp A→B: Caco-2, Papp A-B; for Papp B→A: Caco-2, Papp B-A
Procedure: as §1

FXR = target: T1, FXR (Homo sapiens, UniProt Q96RI1); assay: Intracellular FXR-TR-FRET experiment (pBIND-FXR / pG5Luc dual luciferase); assay type: cell-based; conditions: cellular level, 18 hours with compound
T1 construct: expressed in transfected cells
T1 sequence (Q96RI1 1-486): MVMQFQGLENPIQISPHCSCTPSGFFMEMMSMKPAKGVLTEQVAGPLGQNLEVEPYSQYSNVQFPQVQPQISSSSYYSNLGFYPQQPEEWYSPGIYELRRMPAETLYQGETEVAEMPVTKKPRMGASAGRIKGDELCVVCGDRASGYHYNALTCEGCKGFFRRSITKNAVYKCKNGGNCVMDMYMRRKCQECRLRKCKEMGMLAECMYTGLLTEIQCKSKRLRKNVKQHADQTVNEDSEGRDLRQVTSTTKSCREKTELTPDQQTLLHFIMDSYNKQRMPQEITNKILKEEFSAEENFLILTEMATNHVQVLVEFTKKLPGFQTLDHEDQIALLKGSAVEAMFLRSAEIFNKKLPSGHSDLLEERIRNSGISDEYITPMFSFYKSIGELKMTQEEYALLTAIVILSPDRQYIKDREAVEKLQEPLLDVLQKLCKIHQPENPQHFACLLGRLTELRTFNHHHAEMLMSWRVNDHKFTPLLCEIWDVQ
Procedure: • 1. Cell culture: a, trypsinize dishes and seed cells are taken with appropriate density in 10 ml of complete […] at 37° C. b. Cells are incubated for 24 hours in 5% CO2 and humidified. • 2. Cell inoculation and transfection: FuGENE HD transfection reagent is used as a transfection reagent. • a. The transfection mixture is prepared according to the following procedure:
• b. The tube is tapped vigorously to mix the contents. The mixture is incubated at room temperature for 15 minutes. • c. Discs are trypsinized and cell density is determined. • d. The cytolymph is diluted to the desired volume at a density of 500,000 cells/ml (100 ul/well for 96-well plate). • e. The required volume of previously prepared transfection mixture is added to both cytolymph, and then 100 ul/well of cytolymph is dispensed onto the assay plate. • f. The assay plate is incubated under humidified conditions at 37° C., 5% CO2 for 24 hours. • 3. Compound preparation: • a. Compound stocks are prepared with a FXR working concentration of 10 mM and then diluted 3-fold in 100% DMSO. • b. 10 ul compound is added to 90 ul complete medium. • c. 5 ul compound solution is added to each well. • d. The plate is incubated at 37° C., 5% CO2 and humidified for 18 hours. • 4. Dual luciferase assay: the firefly and Renilla luciferase signals are analyzed by Dual Luciferase Reporter Assay System from Promega. Envision is used as a photometer. • 5. Result calculation: data values are normalized by dividing the firefly signal by the Renilla signal. “F/R” means “firefly/Renilla”. This normalization eliminates differences in different cell numbers and transfection efficiencies in each well. The % Activation value is calculated. The % Activation value is calculated by the following formula.
X is the “F/R” value for each concentration point. The minimum value is the average “F/R” value for the no compound control. The maximum value is the average “F/R” value of the reference compound control. • 6.

[2] = target: T2, GST-labeled recombinant human FXR protein (Homo sapiens, UniProt Q96RI1); assay: Agonistic activity on FXR receptor (GST-FXR / SRC-1 bead assay, protein level); assay type: biochemical; conditions: 0.4 nM FXR, 30 nM SRC-1, protein level
T2 construct: purchased Invitroren (so in the source)
T2 sequence (Q96RI1 262-486 limits assumed): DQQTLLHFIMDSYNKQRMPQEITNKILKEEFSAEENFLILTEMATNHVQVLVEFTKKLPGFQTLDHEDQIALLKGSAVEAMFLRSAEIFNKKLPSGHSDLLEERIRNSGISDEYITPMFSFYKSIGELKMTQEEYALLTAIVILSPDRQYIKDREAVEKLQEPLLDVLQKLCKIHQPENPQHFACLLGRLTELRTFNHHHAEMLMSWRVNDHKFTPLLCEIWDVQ
T2 sequence (Q15788 676-700 partner limits assumed): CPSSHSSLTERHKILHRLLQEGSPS
Procedure: Experimental procedures: FXR (GST-labeled recombinant human FXR protein, manufacturer: Invitroren, Item number: PV4835) and SRC-1 (steroid receptor co-activator-1) are thawed on ice. Three solutions of ABC are prepared by a buffer solution, solution A, 0.4 n M FXR and 30 nM SRC-1; solution B, 10 ug/ml Acceptor Beads; solution C, 10 ug/ml Donor Beads. Solution A is added to the plate at 15 uL per well. It is incubated at room temperature for 1 hour. Solution B is added to the plate at 7.5 uL per well. It is incubated at room temperature for 1 hour. Solution C is added to the plate at 7.5 uL per well. It is incubated at room temperature for 1 hour. It is read from the microplate reader Envision. The data are curve fitted by using Prism 5.0 to calculate the EC50.

[3] = literature; cited from earlier work
[4] = Caco-2, Recovery rate A-B, Average
[5] = Caco-2, Recovery rate A-B, Sample-01
[6] = Caco-2, Recovery rate A-B, Sample-02
[7] = Caco-2 cell line (21 days), Table 5

membrane permeation in Caco-2 (in words) ([1]; Caco-2) | efflux ratio (in vitro) | Papp A→B (in vitro) | Papp A→B (in vitro; Average) | Papp A→B (in vitro; Sample-01) | Papp A→B (in vitro; Sample-02) | Papp B→A (in vitro) | recovery (in vitro; [4]) | recovery (in vitro; [5]) | recovery (in vitro; [6]) | EC50 (FXR) | EC50 [2] | Compound | also measured
poor permeation | > 76.8 | < 0.15 ×10⁻⁶ cm/s | < 0.15 ×10⁻⁶ cm/s | < 0.16 ×10⁻⁶ cm/s | < 0.14 ×10⁻⁶ cm/s | 11.6 ×10⁻⁶ cm/s | < 21.8% | < 27.2% | < 16.4% | 1.49 µM | 1.09 µM | O=C(O)c1cccc(C2CC(O)(c3ccc(OCc4c(-c5c(Cl)cccc5Cl)noc4C4CC4)cc3Cl)C2)c1 (centres unmarked) [Compound M3, reference compound] | Papp A-B, Average ([1]; human, Caco-2): <0.15 10−6 cm/s; Papp B→A (in vitro; Average): 11.6 ×10⁻⁶ cm/s; Papp B→A (in vitro; Sample-01): 13.3 ×10⁻⁶ cm/s; Papp B→A (in vitro; Sample-02): 9.96 ×10⁻⁶ cm/s; recovery (in vitro; Caco-2, Recovery rate B-A, Average): 36%; recovery (in vitro; Caco-2, Recovery rate B-A, Sample-01): 36.3%; recovery (in vitro; Caco-2, Recovery rate B-A, Sample-02): 35.6%
– | > 263 | – | – | – | – | – | – | – | – | – | – | C[C@H]1O[C@@H](O[C@H]2[C@@H](O)C[C@H](O[C@H]3[C@@H](O)C[C@H](O[C@H]4CC[C@@]5(C)[C@H](CC[C@@H]6[C@@H]5C[C@@H](O)[C@]5(C)[C@@H](C7=CC(=O)OC7)CC[C@]65O)C4)O[C@@H]3C)O[C@@H]2C)C[C@H](O)[C@@H]1O [Digoxin, digoxin, reference compound] | Papp A-B, Average ([1]; Caco-2, A-B, Average (Table 3)): <0.04 10−6 cm/s; Efflux rate = Papp B-A/Papp A-B ([1]; Caco-2 cell line (21 days)): > 262.93; Papp A→B (in vitro; Average, Caco-2, A-B, Average (Table 3)): < 0.04 ×10⁻⁶ cm/s; Papp A→B (in vitro; [7]): < 0.04 ×10⁻⁶ cm/s; Papp A→B (in vitro; Sample-01, Caco-2, A-B, Sample-01): < 0.05 ×10⁻⁶ cm/s; Papp A→B (in vitro; Sample-02, Caco-2, A-B, Sample-02): < 0.04 ×10⁻⁶ cm/s; Papp B→A (in vitro; Average, Caco-2, B-A, Average (Table 3)): 11.6 ×10⁻⁶ cm/s; Papp B→A (in vitro; [7]): 11.6 ×10⁻⁶ cm/s; Papp B→A (in vitro; Sample-01, Caco-2, B-A, Sample-01): 11.7 ×10⁻⁶ cm/s; Papp B→A (in vitro; Sample-02, Caco-2, B-A, Sample-02): 11.5 ×10⁻⁶ cm/s; recovery (in vitro; Caco-2, Recovery rate A-B, Average, Caco-2, A-B): < 87%; recovery (in vitro; Caco-2, Recovery rate A-B, Sample-01, Caco-2, A-B, Sample-01): < 85.2%; recovery (in vitro; Caco-2, Recovery rate A-B, Sample-02, Caco-2, A-B, Sample-02): < 88.7%; recovery (in vitro; Caco-2, Recovery rate B-A, Average, Caco-2, B-A): 94.6%; recovery (in vitro; Caco-2, Recovery rate B-A, Sample-01, Caco-2, B-A, Sample-01): 93.7%; recovery (in vitro; Caco-2, Recovery rate B-A, Sample-02, Caco-2, B-A, Sample-02): 95.4%
– | – | – | – | – | – | – | – | – | – | – | – | CC(C)c1onc(-c2c(Cl)cccc2Cl)c1COc1ccc(/C=C/c2cccc(C(=O)O)c2)c(Cl)c1 [GW4064] | oral availability [3]: 10%; t½ [3]: 3.5 h
poor effect | 16.9 | 0.58 ×10⁻⁶ cm/s | 0.97 ×10⁻⁶ cm/s | 1.01 ×10⁻⁶ cm/s | 0.94 ×10⁻⁶ cm/s | 9.89 ×10⁻⁶ cm/s | 99% | 99.6% | 98.5% | 1.51 µM | 0.24 µM | Cc1cc(C(=O)O)cc(C2CC(O)(c3cnc(OCc4c(-c5c(Cl)cccc5Cl)noc4C4CC4)cn3)C2)c1 (centres unmarked) [TM-08, 3-(3-(5-((5-cyclopropyl-3-(2,6-dichlorophenyl)isoxazol-4-yl)methoxy)pyrazine-2-yl)-3-hydroxycyclobutyl)-5-methyl benzoic acid] | –
